In the CheMixHub viscosity set:

Assays:
[1] = xn = mol fraction of the nth substance listed

CCCC[N+]1=C2CCCCCN2CCC1.c1c[n-]cn1
100 kPa
Details	viscosity [mPa·s]
293.15 K	106.7
298.15 K	73.92
303.15 K	53.38
308.15 K	40.19
313.15 K	31.07

CCCC[n+]1ccccc1.O=S(=O)([N-]S(=O)(=O)C(F)(F)F)C(F)(F)F
viscosity [mPa·s]
Details	293.15 K	298.15 K	303.15 K	308.15 K	313.15 K	323.15 K
100 kPa	68.87	52.94	41.94	33.75	27.63	–
101 kPa	–	–	49.4	–	33.8	24.2

CCOP(=O)([O-])OCC.CCn1cc[n+](C)c1
100 kPa
Details	viscosity [mPa·s]
293.15 K	566
298.15 K	396.6
303.15 K	285.4
308.15 K	208.7
313.15 K	155.3
318.15 K	117.2
323.15 K	91.75

C1CC[C@H]2CCCC[C@@H]2C1 + O=C1CCCCC1
viscosity [mPa·s], [1], 101.3 kPa
Details	293.15 K	303.15 K
x2 = 0.05	2.114	1.758
x2 = 0.15	2.103	1.744
x2 = 0.2415	2.105	1.737
x2 = 0.3447	2.119	1.737
x2 = 0.4511	2.147	1.744
x2 = 0.5088	2.168	1.75
x2 = 0.6731	2.253	1.784
x2 = 0.6779	2.256	1.785
x2 = 0.7761	2.326	1.815
x2 = 0.8609	2.397	1.848
x2 = 0.9315	2.466	1.88

CCCOCCO + O=C1CCCN1
[1], 298.15 K, 101 kPa
Details	viscosity [mPa·s]
x1 = 0.0058	13.97
x1 = 0.015	13.55
x1 = 0.035	12.83
x1 = 0.0681	11.7
x1 = 0.1013	10.72
x1 = 0.1517	9.453
x1 = 0.2214	8.048
x1 = 0.2526	7.522
x1 = 0.3008	6.831
x1 = 0.3725	5.947
x1 = 0.3786	5.895
x1 = 0.4257	5.419
x1 = 0.4698	5.028
x1 = 0.5219	4.651
x1 = 0.5519	4.44
x1 = 0.6236	3.983
x1 = 0.6987	3.576
x1 = 0.7597	3.317
x1 = 0.8327	2.977
x1 = 0.8764	2.801
x1 = 0.9045	2.695
x1 = 0.9327	2.592
x1 = 0.9694	2.473
x2 = 0.0135	2.409

CCCOCCO + O=S1(=O)CCCC1
[1], 303.15 K, 101 kPa
Details	viscosity [mPa·s]
x2 = 0.0493	1.842
x2 = 0.1029	1.682
x2 = 0.1508	1.659
x2 = 0.1991	1.748
x2 = 0.2989	2.284
x2 = 0.3489	2.685
x2 = 0.3998	3.16
x2 = 0.4993	4.193
x2 = 0.5988	5.262
x2 = 0.7002	6.392
x2 = 0.8	7.572
x2 = 0.9012	8.861
x2 = 0.9504	9.498

CCCOCCO + O=[N+]([O-])c1ccccc1
[1], 298.15 K, 101 kPa
Details	viscosity [mPa·s]
x2 = 0.0509	2.336
x2 = 0.1085	2.326
x2 = 0.2052	2.316
x2 = 0.3224	2.304
x2 = 0.3978	2.292
x2 = 0.4501	2.279
x2 = 0.5017	2.262
x2 = 0.5513	2.241
x2 = 0.6026	2.216
x2 = 0.6998	2.154
x2 = 0.8045	2.066
x2 = 0.9028	1.957
x2 = 0.9525	1.888

C[N+](C)(C)C.NCC(=O)[O-] + OCC(O)CO
[1], 303 K, 101 kPa
Details	viscosity [mPa·s]
x1 = 0.065	397.5
x1 = 0.13	390.8
x1 = 0.21	380.1
x1 = 0.29	369.3
x1 = 0.48	346.5
x1 = 0.71	327.7

C[N+](C)(C)C.NCC(=O)[O-] + OCCO
[1], 303 K, 101 kPa
Details	viscosity [mPa·s]
x1 = 0.044	46.5
x1 = 0.095	75.2
x1 = 0.15	103.9
x1 = 0.22	138
x1 = 0.39	185.9
x1 = 0.63	251.5

CCCOCCO + OCCOCCO
[1], 101 kPa
Details	viscosity [mPa·s]
293.15 K, x1 = 0.0522	34.91
293.15 K, x1 = 0.1049	31.33
293.15 K, x1 = 0.2035	25.38
293.15 K, x1 = 0.2926	20.65
293.15 K, x1 = 0.3996	15.84
293.15 K, x1 = 0.4555	13.73
293.15 K, x1 = 0.4975	12.32
293.15 K, x1 = 0.5488	10.8
293.15 K, x1 = 0.5924	9.666
293.15 K, x1 = 0.7043	7.291
293.15 K, x1 = 0.7921	5.699
293.15 K, x1 = 0.9015	3.905
293.15 K, x1 = 0.9536	3.147
298.15 K, x1 = 0.053	26.82
298.15 K, x1 = 0.1014	24.15
298.15 K, x1 = 0.1985	19.48
298.15 K, x1 = 0.3104	15.16
298.15 K, x1 = 0.4057	12.25
298.15 K, x1 = 0.4511	11.07
298.15 K, x1 = 0.4975	9.977
298.15 K, x1 = 0.5511	8.842
298.15 K, x1 = 0.6049	7.816
298.15 K, x1 = 0.6981	6.239
298.15 K, x1 = 0.8017	4.717
298.15 K, x1 = 0.89	3.562
298.15 K, x1 = 0.9483	2.89
303.15 K, x1 = 0.0608	19.27
303.15 K, x1 = 0.1099	17.35
303.15 K, x1 = 0.1927	14.48
303.15 K, x1 = 0.3017	11.38
303.15 K, x1 = 0.3982	9.174
303.15 K, x1 = 0.4498	8.171
303.15 K, x1 = 0.4916	7.433
303.15 K, x1 = 0.5511	6.487
303.15 K, x1 = 0.6073	5.701
303.15 K, x1 = 0.7083	4.5
303.15 K, x1 = 0.7941	3.671
303.15 K, x1 = 0.9072	2.776
303.15 K, x1 = 0.9353	2.579

CCCOCCO + OCCOCCOCCO
[1], 101 kPa
Details	viscosity [mPa·s]
293.15 K, x1 = 0.0477	37.18
293.15 K, x1 = 0.1028	32.98
293.15 K, x1 = 0.2026	26.12
293.15 K, x1 = 0.3116	19.86
293.15 K, x1 = 0.397	15.84
293.15 K, x1 = 0.4561	13.47
293.15 K, x1 = 0.4963	12.06
293.15 K, x1 = 0.549	10.39
293.15 K, x1 = 0.5885	9.266
293.15 K, x1 = 0.6941	6.794
293.15 K, x1 = 0.8011	4.892
293.15 K, x1 = 0.9015	3.544
293.15 K, x1 = 0.9316	3.208
298.15 K, x1 = 0.0552	30.77
298.15 K, x1 = 0.1173	26.96
298.15 K, x1 = 0.2033	22.23
298.15 K, x1 = 0.3039	17.54
298.15 K, x1 = 0.4049	13.68
298.15 K, x1 = 0.4555	12.02
298.15 K, x1 = 0.5186	10.2
298.15 K, x1 = 0.5413	9.595
298.15 K, x1 = 0.591	8.373
298.15 K, x1 = 0.6905	6.309
298.15 K, x1 = 0.7968	4.592
298.15 K, x1 = 0.8962	3.38
298.15 K, x1 = 0.9323	3.003
303.15 K, x1 = 0.0529	26.52
303.15 K, x1 = 0.1142	23.47
303.15 K, x1 = 0.2041	19.36
303.15 K, x1 = 0.2979	15.66
303.15 K, x1 = 0.4027	12.28
303.15 K, x1 = 0.4522	10.91
303.15 K, x1 = 0.4952	9.838
303.15 K, x1 = 0.5507	8.582
303.15 K, x1 = 0.5939	7.697
303.15 K, x1 = 0.6941	5.899
303.15 K, x1 = 0.7987	4.346
303.15 K, x1 = 0.9027	3.083
303.15 K, x1 = 0.9431	2.664
